Experiment in all cases: NCI-60 cell line screen, 48 h
Assay [1] relates to PC-3 prostate.
In assay [2] the test system is UACC-62 melanoma.
The subject of assay [3] is ACHN renal.
In assay [4] the test system is NCI-H522 lung.
Assay [5] deals with HS 578T breast.
In assay [6] the test system is NCI/ADR-RES ovarian.
The test system of assay [7] is OVCAR-4 ovarian.
Assay [8] has as its system KM20L2 colon.
The subject of assay [9] is M19-MEL melanoma.
Assay [10] concerns EKVX NSCLC.
Assay [11] relates to XF 498 CNS.
The subject of assay [12] is DMS 273 small cell lung.

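Values below derive from 48-hour exposures of cells grown in 96-well plates, with endpoints linearly interpolated between the two concentrations bracketing the appropriate inhibition level. GI50 = concentration required for 50% inhibition of growth. TGI: total growth inhibition.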

As for `CCOc1ccc2c(ccc(/C=C\c3cc(C)c4cccnc4c3O)[n+]2C)c1`, the TGI in assay [1] is 6.14 µM; in [2], 11.4 µM; in assay [3], 21.4 µM; in [4], 5.14 µM; in assay [5] it was more than 100 µM; in assay [6] it was more than 100 µM. Besides, the TGI in assay [7] is 18.6 µM; in assay [8], 37 µM; in assay [9] it was more than 100 µM; in assay [10] it was 15.2 µM.

For `COc1cc2c3c(n(CCN(C)C)c(=O)c2cc1OC)-c1cc2c(cc1C3=O)OCO2`, the GI50 is 31.4 µM in [1]; 2.51 µM in [4]; more than 84.9 µM in assay [5]; 0.315 µM in [6]; more than 38.2 µM in [7]; 37 µM in assay [10]. Moreover, the TGI in [1] is more than 100 µM; in [3] it was more than 100 µM; in assay [4] it was more than 100 µM; in assay [5], more than 100 µM; in [6], more than 40 µM; in [7], more than 100 µM. The compound further had a TGI in assay [10] of more than 100 µM.

Turning to `O=C(O)c1cc(=O)[nH]c(=S)[nH]1`, the TGI in assay [1], in [2], in [3], in assay [4], in assay [5] and in [6] was more than 100 µM throughout. Moreover, the TGI in [7] and in [10] was more than 100 µM in each case.

Turning to `CCCCN(CCCC)CCCCNc1c(C)cnc2cc(Cl)ccc12`, the TGI in assay [3] was more than 100 µM; in assay [4], 35.6 µM; in assay [7], more than 100 µM; in assay [8] it was 36.7 µM; in assay [9], more than 100 µM; in [10], 46.3 µM. This compound came in with a TGI in assay [11] of 28.6 µM.

`Cc1ccc(S(=O)(=O)Oc2cc(S(=O)(=O)O)cc3cc(S(=O)(=O)O)cc(N)c23)cc1`: the TGI in [1], in [2], in assay [3], in [4], in assay [5] and in assay [6] was more than 100 µM in each case. Moreover, the TGI in assay [7] and in assay [10] was more than 100 µM throughout.

On to `c1ccc2c(c1)nc1n2CSC1`, for which the TGI in assay [2], in [3], in [4], in assay [8], in assay [9] and in [10] was more than 100 µM in each case. The TGI in assay [12] and in [11] was more than 100 µM throughout.

For `O=C(Nc1ccc(Cl)cc1)/C(Cc1cccc[n+]1[O-])=N\Nc1ccc([N+](=O)[O-])cc1[N+](=O)[O-]`, the TGI in assay [2], in [3], in assay [4], in [7], in [8] and in assay [9] was more than 100 µM throughout. In addition, the TGI in [10] and in assay [12] was more than 100 µM in each case.

Regarding `[C-]#[O+].[Cl][Sn]([Cl])[Cl].[Cl][Sn]([Cl])[Cl].[Pt].c1ccncc1`, the TGI in assay [2] was more than 100 µM; in [4], more than 65.3 µM; in assay [6] it was more than 100 µM; in assay [7], more than 100 µM; in assay [8], more than 100 µM; in [10], more than 100 µM. For the same compound, the TGI in [12] is more than 100 µM. For the same compound, the GI50 in [6] was more than 100 µM.

Turning to `CCN(CC)CCCC(Nc1c2ccc(Cl)cc2nc2ccc(OC)cc12)c1ccc(F)cc1` (configuration not stated), the GI50 was 2.7 µM in assay [1]; 1.71 µM in [2]; 1.97 µM in assay [3]; 2.01 µM in assay [4]; 1.69 µM in assay [5]; 2.38 µM in assay [6]. The GI50 in assay [7] was 1.71 µM; in [10] it was 2.08 µM. Besides, the TGI was 9.22 µM in assay [1]; 3.25 µM in assay [2]; 3.64 µM in [3]; 4.58 µM in [4]; 4.17 µM in assay [5]; 5.75 µM in assay [6]. Further, the TGI in assay [7] is 4.71 µM; in assay [10], 8.48 µM.

Turning to `CN1C2C=C(c3ccccc3)CC1CC2` (configuration not stated), the TGI in assay [2], in assay [3], in [4], in assay [8], in assay [9] and in assay [10] was more than 100 µM throughout. Further, the TGI in [11] was more than 100 µM.

Regarding `O=C1CN2C(Cl)(Cl)C2(c2ccccc2)c2cc(Cl)ccc2N1CC(F)(F)F` (configuration not stated), the TGI in assay [2] is more than 100 µM; in assay [3], more than 100 µM; in assay [4], 42.7 µM; in [7], 43.7 µM; in assay [8], more than 100 µM; in [9] it was more than 100 µM. The values for the TGI in assay [10] and in assay [12] were more than 100 µM and 72.7 µM, respectively.

Take `CC1=C[C@]2(CC(C)C3C(CC4(C)C5CCC6C(C)(C)C(=O)CC[C@@]67C[C@@]57CC[C@]34C)O2)OC1=O` (some centres not stated): the TGI is more than 100 µM in assay [3]; 57.5 µM in assay [7]; more than 100 µM in assay [10]; 32.6 µM in assay [12]; 30 µM in assay [11].

As to `CCOP(=O)(OCC)C(Cc1ccc(OC)c(OC)c1)N=C(c1ccccc1)c1ccccc1` (configuration not stated), the TGI is more than 100 µM in assay [1]; more than 100 µM in [2]; more than 100 µM in assay [3]; 97.3 µM in assay [4]; more than 100 µM in assay [6]; more than 100 µM in assay [7].

In the case of `CC(/C=C/c1ccc([N+](=O)[O-])o1)=N/N1CC(CN2CCOCC2)OC1=O` (configuration not stated), the TGI in assay [1] was 68 µM; in [2], 52.3 µM; in assay [3] it was 34.2 µM; in assay [5], more than 100 µM; in assay [6], 95.9 µM; in assay [7] it was 29.7 µM. The compound further had a TGI in assay [10] of more than 100 µM.

For the compound `COc1ccc(/C=N/NC(=O)NCCCN(C)C)cc1`, the TGI in assay [2], in assay [3], in assay [4], in assay [12] and in assay [11] was more than 100 µM in each case.

Regarding `CCOc1ccc(/C=C/[N+](=O)[O-])cc1`, the GI50 was 12.4 µM in assay [1]; 13.8 µM in [2]; 12 µM in assay [3]; 13.2 µM in assay [4]; 35.3 µM in assay [5]; 33 µM in assay [6]. Moreover, the GI50 in assay [7] is 23.4 µM; in assay [10], 25.7 µM. In addition, the TGI in [1] is 33.7 µM; in assay [2], 27.2 µM; in assay [3], 24.3 µM; in assay [4], 28 µM; in assay [5], more than 100 µM; in assay [6], more than 100 µM. Besides, the TGI in assay [7] is more than 100 µM; in assay [10], 81.7 µM.

Take `Cc1nc2ccccc2c(=O)n1CC(=O)O`: the TGI in [2], in assay [4], in assay [6], in [7], in assay [8] and in assay [9] was more than 100 µM each time. Besides, the TGI in [10], in assay [12] and in assay [11] was more than 100 µM throughout.

On to `Cn1cc(C[C@@H](N)C(=O)O)c2ccccc21`, for which the TGI in assay [1], in assay [2], in [3], in assay [4], in assay [5] and in assay [6] was more than 100 µM in each case. For the same compound, the TGI in [7] and in assay [10] was more than 100 µM throughout. The GI50 in assay [5] is more than 100 µM.

On to `Cc1cccc2c(N)c3cccc(C(=O)NCCN(C)C)c3nc12`, for which the TGI in [1] was found to be 0.357 µM; in assay [2], 0.227 µM; in assay [3], 6.75 µM; in assay [4], 0.0737 µM; in [6] it was 4.74 µM; in assay [7], 18 µM. The compound further returned a TGI in [10] of 0.469 µM.

For `Nc1ncnc2c1ncn2C1CCC(CO)O1` (configuration not stated), the TGI in assay [2] is more than 100 µM; in assay [4] it was more than 100 µM; in assay [6], more than 77.4 µM; in assay [7], more than 89.1 µM; in assay [8], more than 100 µM; in assay [9] it was more than 100 µM. The figures for the TGI in assay [10], in assay [12] and in [11] were 100 µM, more than 100 µM and more than 100 µM, respectively.

With `CC(C)=CCc1c(C)cc2cc3c(c(O)c2c1O)C(O)=CC(=O)C3(CC=C(C)C)C/C=C(\C)CO` (configuration not stated), the TGI in assay [2] came out at 67.5 µM; in assay [4], 65.2 µM; in assay [6], 102 µM; in assay [7] it was 87 µM; in [8] it was 76.6 µM; in assay [9] it was 79.9 µM. The TGI in assay [10] was found to be 70.7 µM; in assay [12] it was 109 µM; in assay [11], 53.5 µM.

Regarding `CC[C@@H](C(=O)[C@@H](C)[C@@H](O)[C@H](C)CCc1ccc(C)c(O)c1C(=O)O)[C@H]1O[C@](CC)([C@H]2CC[C@](O)(CC)[C@H](C)O2)C[C@@H]1C`, the TGI was determined as 4.04 µM in [2]; 13.2 µM in assay [3]; 3.11 µM in assay [4]; 19.2 µM in assay [7]; 11.6 µM in [8]; 4.06 µM in [9]. Moreover, the TGI in assay [10] is 9 µM; in assay [12], 8.1 µM; in assay [11], 3.41 µM.

In the case of `O=C(Nc1nc2ccc([N+](=O)[O-])cc2[n+]([O-])n1)C(F)(F)F`, the TGI is more than 100 µM in assay [1]; 53.1 µM in [2]; 90.8 µM in assay [3]; more than 100 µM in assay [4]; more than 100 µM in assay [6]; more than 100 µM in assay [7].

Take `CO/N=C1/c2sccc2[C@H](NC(=O)C(F)(F)F)[C@@H]1O`: the TGI in assay [1], in [2], in assay [5], in assay [6], in assay [7] and in assay [10] was more than 100 µM throughout.

Consider `C[C@]12C=CC(=O)C=C1CC[C@@H]1[C@@H]2C(=O)C[C@@]2(C)[C@H]1CC[C@]2(O)C(=O)CO`, for which the TGI in assay [1], in [2], in assay [3], in [4], in [5] and in assay [6] was more than 100 µM throughout. Further, the TGI in assay [7] and in assay [10] was more than 100 µM throughout.

These data come from PubChem BioAssay (NCI).
